Broadly, the CC50 is the concentration giving 50% cytotoxicity. Broadly, the EC50 is the concentration at which the effect is half-maximal.

This is an account of results in patent publication US8809344B2, “Compounds, compositions, and methods for control of hepatitis C viral infections” (priority 2008, dated 2014).

The nature of data set [1]: ATP viability assay (CellTiter-Glo) in replicon-harboring Huh7.5 cells. The class given is cell-based, human. To be noted: human; 24 hours post-treatment; Huh7.5 cells harboring transient genotype 1b replicon. As for the experimental part:
Inhibition of HCV replication by AP0089652, AP0080978 (enantiomer 2 from Example 1) and AP0080977 (enantiomer 1 from Example 1) were assayed by exposing cells harboring an HCV genotype 1b replicons to the compounds and quantitating HCV replicon levels following exposure. The replicon used in these studies was a transient genotype 1b subgenomic replicon generated from the Con1 strain. In this replicon, the HCV internal ribosome entry site (IRES) within the 5′ non-translated region (NTR) drives expression of the first 32 amino acids of the core protein fused to humanized Renilla luciferase (hRluc). The encephalomycarditis IRES lies 3′ to the hRluc open reading frame (ORF) and drives expression of non-structural (NS) proteins NS3 through NS5B. Huh7.5 cells (U.S. patent application Ser. No. 10/534,571) harboring this replicon were seeded into 96-well plates at 20,000 cells per well in medium containing 10% FBS, 1× penicillin/streptomycin, 1× non-essential amino acids, and 100 ng/ml Fungizone. After a four hour attachment period, compound was added to wells using a five point 3-fold serial dilution series with four replicate treatments per dose. […] Compound-mediated HCV inhibition and toxicity were assayed 24 hours post-treatment using Renilla luciferase readout and an ATP viability assay (CellTiter-Glo, Promega, Madison, Wis., USA), respectively. […]
A general note: ATP-based viability assays read luminescence as a measure of living cells.

Data set [2] concerns genotype 1b (Con1 strain) subgenomic replicon in 80978-resistant Clone A cells. Description: 80978-resistant Clone A cells, HCV RNA by quantitative RT-PCR. Conditions: Hepatitis C virus, 72 h. It is filed as cell-based. As for the experimental part: In an effort to gain insight into the target of 80978, Clone A cells were selected for resistance to 80978. Clone A cells are a human hepatoma cell line that contains a stable genotype 1b (Con1 strain) subgenomic replicon. Cells were cultured for 12 days in medium containing 10 μM 80978 and 1 mg/ml Geneticin™ (Invitrogen). Medium was changed every 3-4 days to replenish compound, and cells were split as needed to maintain subconfluent cultures. After 12 days of growth in the presence of 10 μM 80978, the concentration of 80978 was increased to 20 μM and cultured for an additional 19 days. Control Clone A cells were grown in parallel in the presence of diluent only. After this culture period, cells were evaluated for response to 80978.
Control cells and cells that had been cultured in the presence of 80978 were treated in triplicate with 3-fold serial dilutions of compound for 72 hours. At the end of this incubation period, total RNA was extracted, and HCV RNA levels were measured by quantitative RT-PCR using primers that recognize the 3′NTR.

The subject of data set [3] is genotype 1b (Con1 strain) replicon with NS4B F1809V mutation. The data set is described as follows: F1809V mutant reporter replicon IVT RNA in Huh7.5 cells. It is filed as cell-based. Conditions: Hepatitis C virus. The text has this: To identify nucleotide changes that confer resistance to 80978, replicon RNA was reverse transcribed and amplified from total RNA extracted from 80978-resistant and control Clone A cells. […] One silent mutation at amino acid 1771 was also observed. Each mutation was introduced independently into a stable genotype 1b (Con1 strain) subgenomic reporter replicon plasmid via site-directed mutagenesis. […] The sequence of the wild type NS4B encoding sequence is provided as SEQ ID NO:1, the sequence of the mutated NS4B nucleotide sequence encoding the F1809V mutation is provided as SEQ ID NO:3, and the sequence of the mutated NS4B nucleotide sequence encoding the F1809L mutation is provided as SEQ ID NO:5. The sequence of the wild type NS4B protein is provided as SEQ ID NO:2, the sequence of the mutated NS4B protein with the F1809V mutation is provided as SEQ ID NO:4, and the sequence of the mutated NS4B nucleotide sequence encoding the F1809L mutation is provided as SEQ ID NO:6. […] A differential response was observed between cells electroporated with different replicon RNAs.
Background: In antiviral work, replicon cells carry a viral genome segment that copies itself.

For data set [4], the system named is genotype 1a replicon H/FL-Neo(L+I) (H77 strain). Description: Genotype 1a replicon in Huh7.5 cells, HCV RNA by blot hybridization. It is filed as cell-based. Conditions: Hepatitis C virus, Huh7.5, 72 h.
Data set [5] relates to stable genotype 1b (Con1 strain) subgenomic replicon. Description: Log10 decrease in HCV replicon RNA in Clone VI cells, quantitative RT-PCR relative to GAPDH. The class given is cell-based, hepatitis C virus. Conditions: 20 μM compound, 72 hours. Here is the method:
To quantify the effect of compound on HCV RNA replicon levels by measuring HCV replicon RNA levels, the Clone VI cell line, a human hepatoma cell line that contains a stable genotype 1b (Con1 strain) subgenomic replicon with the adaptive Ser1179Ile mutation was used (U.S. Pat. No. 7,049,428). Cells were seeded into 12-well plates (40,000 cells per well) in the absence of Geneticin™ (Invitrogen, Carlsbad, Calif., USA) and treated in triplicate four hours later with 20 μM compound, with a final DMSO percentage of 1% in a total volume of 1 ml. Total RNA was extracted 72 hours later, and HCV and GAPDH RNA levels were quantified via quantitative RT-PCR. The log 10 decrease in HCV RNA levels was quantified relative to GAPDH RNA levels using the comparative Ct (threshold cycle) method (Applied Biosystems, Foster City, Calif., USA).
Additional compounds of formula (I) shown in FIG. 1 were also shown to inhibit HCV RNA replication. The effects of various compounds of formula (I) on HCV RNA replicon levels were determined by measuring HCV replicon RNA levels in cells treated with various concentrations of the compounds. […] Total RNA was extracted 72 hours later, and HCV and GAPDH RNA levels were quantified via quantitative RT-PCR. […]

Consider `O=C(NCc1cccs1)c1nn2c(c1Cl)N[C@H](c1ccco1)C[C@@H]2C(F)(F)F` (single isomer, unassigned) [Compound 80978], for which the CC50 at 24 h in data set [1] was > 100 µM. Moreover, the EC50 in data set [2] was > 25 µM; in data set [3] it was > 22.5 µM; in data set [4], 7.8 µM. Besides, the “Log RNA decrease at [μM]” value in data set [5] is 1.16 @ 20 μM.
